Tests used:
[1] = Compound was tested for inhibition of HL60 cell adhesion to recombinant P-selectin-IgG fusion protein obtained from transfected COS cells
[2] = as above; remark: listed apart in the source

**Q.** For `CC(=O)N[C@@H]1[C@H](OCCCCCC/N=C(S)/N=C2\C=CC(=C3c4ccc(O)cc4Oc4cc(O)ccc43)C(C(=O)O)=C2)O[C@@H](CO)[C@@H](O[C@@H]2O[C@@H](CO)[C@H](O)[C@H](O[C@]3(C(=O)O)C[C@@H](O)[C@@H](NC(C)=O)[C@H]([C@H](O)[C@H](O)CO)O3)[C@@H]2O)[C@@H]1O[C@@H]1O[C@@H](C)[C@@H](O)[C@H](O)[C@@H]1O`, which IC50 [1] is on record?
**A.** Its IC50 is 900 µM.

**Q.** With `CC(=O)N[C@H]1[C@H]([C@H](O)[C@H](O)CO)O[C@@](O[C@@H]2[C@H](O)[C@H](O[C@H]3[C@H](O[C@@H]4O[C@@H](C)[C@@H](O)[C@H](O)[C@@H]4O)[C@H](NC(C)=O)[C@H](NC(=O)[C@H](C)NC(=O)[C@H](CC(=O)O)NC(=O)CNC(=O)[C@@H](N)CCCN=C(N)N)O[C@H]3CO)O[C@@H](CO)[C@@H]2O)(C(=O)O)C[C@H]1O` as the compound, how does the IC50 [1] read?
**A.** Its IC50 is 26 µM.

**Q.** Which IC50 [2] does the source give for `CC(=O)N[C@@H]1[C@H](OCCCCCCNC(=O)CCC(=O)O)O[C@@H](CO)[C@@H](O[C@@H]2O[C@@H](CO)[C@H](O)[C@H](O[C@]3(C(=O)O)C[C@@H](O)[C@@H](NC(C)=O)[C@H]([C@H](O)[C@H](O)CO)O3)[C@@H]2O)[C@@H]1O[C@@H]1O[C@@H](C)[C@@H](O)[C@H](O)[C@@H]1O` [Sialyl-LewisX Conjugate] here?
**A.** The IC50 was 1500 µM.

**Q.** For `CC(=O)N[C@@H]1[C@H](OCCCCCCNC(=O)[C@H]2CC[C@H](CN3C(=O)C=CC3=O)CC2)O[C@@H](CO)[C@@H](O[C@@H]2O[C@@H](CO)[C@H](O)[C@H](O[C@]3(C(=O)O)C[C@@H](O)[C@@H](NC(C)=O)[C@H]([C@H](O)[C@H](O)CO)O3)[C@@H]2O)[C@@H]1O[C@@H]1O[C@@H](C)[C@@H](O)[C@H](O)[C@@H]1O` [Sialyl-LewisX Conjugate], which IC50 [2] is on record?
**A.** Its IC50 is 380 µM.
